The text below walks through data of US20230174975A1 (priority 2020, published 2023).

The EC50 is the concentration giving half of the maximal effect. Read a low EC50 as greater potency.

In one series the test system is 229E virus. Kind of series: organism not typed. The settings on record: for combination effect with Camostat mesylate (in words) / combination effect with IFNα 4b (in words) / inhibition of virus replication: PAC-MAN with the guide; for inhibition of virus replication: no drug, 24 hpi, vs NT6. Format: cell-based, human 229E coronavirus.
Another series has as its system SARS-CoV-2. Format: cell-based. The settings on record: supernatant test, SARS-CoV-2 MOI=0.01.
Series [1] has as its system 229E. Format: cell-based, human 229E coronavirus.
Series [2] has as its system 229E. Format: cell-based, human 229E coronavirus. The source holds these as a separate data set.
The test system of series [3] is transmembrane protease, serine 2 (TMPRSS2). Kind of series: Knockdown of endogenous gene in A549 cells by Cas13d and crRNAs (qPCR). Format: cell-based, human. The note with it: 3 days.
Series [4] relates to methylenetetrahydrofolate dehydrogenase 1 (MTHFD1). The series is described as above. Format: cell-based, human. The note with it: 3 days.
Where [5] appears, read: single agent alone, vs control (NT).

Counter-ions that a name gives are not always drawn. Like-named read-outs stand apart in the source and are kept apart here.

For the compound `CN(C)C(=O)COC(=O)Cc1ccc(OC(=O)c2ccc(NC(=N)N)cc2)cc1` [Camostat mesylate, reference compound], the cytotoxicity result is “no obvious cytotoxicity”. For the same compound, in the series on 229E virus, the EC50 is approximately 500 µM and the “combination effect of the drug with PAC-MAN (in words)” value was “synergistic effects”. For the same compound, the “fold decrease of virus titer” value in the series on 229E virus (setting [5]) worked out at 2.4 fold.

On to “N20: crRNA tested against live SARS-CoV-2 in Cas13d VeroE6 cells; best crRNA of that screen (guide ACUUCAUCAAUUAUGUCAGUUU; chemistry not given here)”, for which the “repression efficiency (viral RNA load)” value in the series on SARS-CoV-2 worked out at 96%. The “protection of cells from death by 229E infection (in words)” value in the series with 229E [1] (229E MOI 0.01, up to 5 day infection) was “protected the cells from death”. The “protection of cells from death at different MOIs (in words)” value with 229E [1] (229E MOI up to 1.0 (FIG. 21A)) was “protected the cells from death”. Besides, the “inhibition of virus replication” value in the series on 229E [2] (guide screening, MRC-5 cells, viral titer in supernatant by RT-qPCR (FIG. 11)) stood at 95%; in the series with 229E virus, 84%. For the same compound, the “combination effect with Camostat mesylate (in words)” value in the series on 229E virus is on record as “promising synergistic effect”. In addition, in the series with 229E virus, the “combination effect with IFNα 4b (in words)” value was “additive effect”. For the same compound, the “fold decrease of virus titer” value with 229E virus (PAC-MAN with the guide combined with IFNα 4b, vs NT) is 10.1 fold; with 229E virus (setting [5]) it was 6.2 fold.

In the case of “R19: crRNA targeting SARS-CoV-2 RdRP sequence (Table 8); not 229E crR19 (guide CACCATCGTAACAATCAAAGTA; chemistry not given here)”, in the series with 229E virus, the “combination effect with Camostat mesylate (in words)” value is given as “promising synergistic effect”, the “combination effect with IFNα 4b (in words)” value is “minus effect” and the “inhibition of virus replication” value was 50%.

In the case of “SEQ ID NO: 13605: crRNA targeting endogenous gene TMPRSS2 (guide TACAGCGTAAAGAAACCACTGCT; chemistry not fully specified)”, in series [3], the “knockdown of TMPRSS2 mRNA (in words)” value is recorded as “efficiently knocked down”.

As to “SEQ ID NO: 13606: crRNA targeting endogenous gene MTHFD1 (guide CAATATCATAAAAACAGGGCCGG; chemistry not fully specified)”, the “knockdown of MTHFD1 mRNA (in words)” value in series [4] was “efficiently knocked down”.

Consider “crN1: crRNA (guide) targeting N gene of human 229E coronavirus; not N1 of Table 9 (guide AGCCCAUUUGACUGUAGCCAUC; chemistry not given here)”, for which, in the series on 229E [1], the cells alive result is reported as “more than 90%”. Also, the “inhibition of virus replication” value with 229E [2] is reported as “about 80%”.

Take “crR8: crRNA (guide) targeting RdRP of human 229E coronavirus (guide AAUCUUUAAUUGCAGCAUCACC; chemistry not given here)”: the “inhibition of virus replication” value in the series on 229E [2] is recorded as “about 80%”.

As to “crR19: crRNA (guide) targeting RdRP of human 229E coronavirus; not R19 of Table 9 (guide CCAGCAGAAAUAAUACGGCUAG; chemistry not given here)”, in the series on 229E [2], the “inhibition of virus replication” value is reported as “about 80%”.
